Source: PMC6357863, “Dithiocarbamate-inspired side chain stapling chemistry for peptide drug design” (Chemical Science, 2018)

What was measured:
HCT116 cells = test: Cellular uptake by confocal microscopy; assay type: cell-based, human; conditions: 20 μM peptide N-terminally conjugated to FITC via aminocaproic acid, HCT116 p53+/+ cells, 4 h, fixed, DAPI
Procedure: Although cationicity is not a universal molecular signature of cell-penetrating peptides, it plays a critical role in the ability of stapled peptides to traverse the cell membrane to exert biological activity.[10],[22],[28]
Cellular uptake of DTCPMI. A fluorescent FITC moiety was appended via an aminocaproic acid to the N- […]
and allowed to grow overnight. Cells were then incubated with 20 µM FITC-DTCPMI for 4 h. Cells were washed with Dulbecco's phosphate buffered saline, fixed with 4% (wt/vol) paraformaldehyde, finally incubated by DAPI to stain the cell nucleus. Imaged using an LSM 510 Zeiss Axiovert 200M (v4.0) confocal microscope. Images were analyzed using an LSM image browser. […]
μM) in serum-free media for 8 hours. The cells were lysed (20 mM Tris-HCl pH 8.0, 0.8 % SDS, 1 mM PMSF, 1 U mL-1 benzonase nuclease) and the crude lysates were clarified by brief centrifugation and total protein concentration was determined by using the Pierce BCA protein assay. Aliquots containing 5 μg of total protein were run on 4-12% Bis-Tris polyacrylamide gels (Invitrogen). Proteins were detected by chemiluminescence reagent (Perkin Elmer) using antibodies specific for p53 (Santa Cruz Biotechnology), MDM2 (Santa Cruz Biotechnology), p21 (Merck Millipore), and β-actin (Sigma-Aldrich). […]

circular dichroism = conditions: phosphate buffer (PB); pH 7.2; 20 °C; 10-50 uM
[1] = target: T1, synthetic 24–108MDMX (p53-binding domain) (Homo sapiens, UniProt O15151); test: SPR-based competition binding assay on 15–29p53-immobilized CM5 chip, MDMX; conditions: 25 °C, MDMX at 100 nM, 10 mM HEPES, 150 mM NaCl, 0.005% P20, pH 7.4, free MDMX quantified on 15–29p53 chip, two replicates, three independent experiments
T1 construct: made in house; host or cells: total chemical synthesis (native chemical ligation of 24-75 thioester with 76-108); no expression host
T1 sequence (O15151 24-108): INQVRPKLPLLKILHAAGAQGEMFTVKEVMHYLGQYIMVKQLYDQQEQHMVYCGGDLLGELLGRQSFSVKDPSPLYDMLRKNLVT
Procedure: and three independent experiments were performed.
Fluorescence polarization (FP).
(§1) As an additional positive control, we
Tecan Infinite M1000 plate reader. […]
additional incubation for 64 hours.
Circular Dichroism (CD) Spectroscopy. […]
(§2) from 10-50 μM. […] The spectra were […]
of each peptide was calculated as reported previously. 12
Stability in GSH. […] RP-

[2] = Circular dichroism spectroscopy, helical content; assay type: physicochemical; conditions: CD, PB pH 7.2, 10-50 μM peptide, 20 °C
Procedure: Circular Dichroism (CD) Spectroscopy.
as §2

HCT116 p53-/- cells = test: Cell viability assay (CCK8), HCT116 p53-/-; assay type: cell-based, human; conditions: concentrations of up to 50 μM, 8 h serum-free then 64 h with serum
Procedure: (§3) and three independent experiments were performed. […]
as §1
(§4) Tecan Infinite M1000 plate reader.
(§5) additional incubation for 64 hours. […]

HCT116 p53+/+ cells = test: Cell viability assay (CCK8), HCT116 p53+/+; assay type: cell-based, human; conditions: concentrations of up to 50 μM, 8 h serum-free then 64 h with serum
Procedure: as §3, §4, §5

| Compound | intracellular localization (confocal microscopy) (HCT116 cells) | helicity (circular dichroism) [%] | Kd [1] [nM] | α-Helix (%) [2] [%] | anti-proliferative activity against HCT116 p53-/- (HCT116 p53-/- cells) | anti-proliferative activity against HCT116 p53+/+ (HCT116 p53+/+ cells) |
| --- | --- | --- | --- | --- | --- | --- |
| CC(=O)N[C@H](C(=O)N[C@@H](CO)C(=O)N[C@@H](Cc1ccccc1)C(=O)N[C@H]1CCCCNC(=S)SC[C@@H](C(=O)N[C@@H](CC(C)C)C(=O)N[C@@H](CC(C)C)C(=O)N[C@@H](CO)C(=O)N[C@@H](CCCNC(=N)N)C(N)=O)NC(=O)[C@H](Cc2c[nH]c3ccccc23)NC(=O)[C@H](Cc2ccc(O)cc2)NC(=O)[C@H](CCC(N)=O)NC1=O)[C@@H](C)O [^DTCPMI] | diffused intracellular localization | 62.2 |  |  |  |  |
| CC(=O)N[C@H]1CCCCNC(=S)SC[C@@H](C(=O)N[C@@H](Cc2ccc(O)cc2)C(=O)N[C@@H](Cc2c[nH]c3ccccc23)C(=O)N[C@@H](CC(N)=O)C(=O)N[C@@H](CC(C)C)C(=O)N[C@@H](CC(C)C)C(=O)N[C@@H](CO)C(=O)N2CCC[C@H]2C(N)=O)NC(=O)[C@H](C)NC(=O)[C@H](Cc2ccccc2)NC(=O)[C@H](CO)NC1=O [PMI(1,5)-a] |  | 6.5 | > 500 |  |  |  |
| CC(=O)N[C@H](C(=O)N[C@@H](CO)C(=O)N[C@@H](Cc1ccccc1)C(=O)N[C@@H](CCCCN)C(=O)N[C@@H](CCC(N)=O)C(=O)N[C@@H](Cc1ccc(O)cc1)C(=O)N[C@@H](Cc1c[nH]c2ccccc12)C(=O)N[C@@H](CS)C(=O)N[C@@H](CC(C)C)C(=O)N[C@@H](CC(C)C)C(=O)N[C@@H](CO)C(=O)N[C@@H](CCCNC(=N)N)C(N)=O)[C@@H](C)O [^DTCPMI Ctrl.] |  | 16.6 |  | 16.6 | no anti-proliferative activity | no anti-proliferative activity |
